# Results as given in US7687071B1, “Nanoparticulate core shell systems and the use thereof in pharmaceutical and cosmetic preparation” (BASF Aktiengesellschaft, priority 1998, dated 2010).
# Test: Wide-angle X-ray scattering
# Type: physicochemical
# Conditions: FIG. 1
# Text: The scattering plots for active ingredient (top) and dry powder from 1b) (bottom) are depicted in FIG. 1. The ritonavir starting material is crystalline, as proven by the X-ray diagram which is characterized by a number of sharp interferences. […] This also applies to the ancillary substances lactose and ascorbyl palmitate which are otherwise crystalline.
smiles,measurement,value
CC(C)c1nc(CN(C)C(=O)N[C@H](C(=O)N[C@@H](Cc2ccccc2)C[C@H](O)[C@H](Cc2ccccc2)NC(=O)OCc2cncs2)C(C)C)cs1 [ritonavir],solid state by X-ray scattering plot,crystalline
